Results: patent US7581540B2, “Aerosol drug delivery device incorporating percussively activated heat packages” (Alexza Pharmaceuticals, Inc., priority 2004, dated 2009)
Read-outs that look alike come from different tables or passages of the source.

How the values were obtained:
[1] = drug aerosol purity and recovered yield after vaporization from a percussively ignited heat package, HPLC; assay type: physicochemical
[2] = airflow about 20 L/min
[3] = for average nicotine purity of the aerosol: maximum temperature 300° C., air flow 20 L/min
Method: The purity of nicotine in an aerosol produced by vaporizing thin films of (nicotine)2-ZnBr2 was also determined. The percent purity of nicotine in the aerosol was determined by comparing the area under the curve representing nicotine with the area under the curve for all other components separated by HPLC.
The coatings of (nicotine)2-ZnBr2 complex were vaporized by applying a current to the metal foil sufficient to heat the coatings to temperatures of 300° C., 350° C., and 400° C. The aerosol formed by vaporizing the coating in an air flow of 20 L/min was analyzed by collecting the aerosol on oxalic acid coated filters. The collected aerosol was extracted from the filters with 5 mL of an aqueous solution containing 0.1% TFA. A Varian HPLC system having a single XTerra RP18, 4.6×150 mm column, with an eluant solution comprising a 75% aqueous phase of perchloric acid solution with one ampoule of 1-octanesulfonic acid sodium salt concentrate at pH 2, and a 25% organic phase of acetonitrile was used. The HPLC was performed under isocratic run conditions for 20 minutes.

[4] = 350° C., air flow 28.3 L/min
Method: To coat metal foils, the (nicotine)2-ZnBr2 complex was dissolved in chloroform. Two separate coating thickness of the (nicotine)2-ZnBr2 complex on stainless steel were prepared. A 169.4 mg/mL solution of (nicotine)2-ZnBr2 complex in chloroform and a 338.8 mg/mL solution of (nicotine)2-ZnBr2 complex in chloroform were made. Exposure to light was minimized at all times during and after formation of these solutions. The (nicotine)2-ZnBr2 complex for each solution was hand coated onto 0.005 inch thick stainless foils using a 10 uL Hamilton syringe. 5.9 uL of the 169.4 mg/mL (nicotine)2-ZnBr2 complex solution was coated onto both sides of an area of 1.27 cm×2.3 cm of stainless steel. This corresponds to a 2 μm film thickness coating which contained about 1 mg of nicotine. Similarly, 8.8 μL of the 338.8 mg/mL (nicotine)2-ZnBr2 complex solution was coated onto both sides of an area of 1.27 cm×2.3 cm of stainless steel. This corresponds to a […] film thickness coating which contained about […] of nicotine The coatings were dried under vacuum for about 1 hour at 25° C. The coatings of (nicotine)2-ZnBr2 complex were stored in a vacuum for at least 30 minutes and protected from light prior to use.
The coatings of (nicotine)2-ZnBr2 complex were vaporized by applying a current of 13.0V to the metal foil sufficient to heat the coatings to temperature of 350° C. The aerosol formed by vaporizing the coating in an air flow of 28.3 L/min was analyzed by collected the aerosol on oxalic acid coated filters using an 8 stage Anderson impactor. […] After vaporization the filters were extracted with 5 mL of 0.1% trifluoroacetic acid/DI H2O and analyzed by HPLC.

[5] = cited from earlier work
[6] = 25° C.; cited from earlier work
[7] = smokeless nicotine products (chewing tobacco, oral snuff, tobacco sachets), buccal absorption

Question: With `Cc1nnc2n1-c1ccc(Cl)cc1C(c1ccccc1)=NC2` [alprazolam] as the compound, how does the “purity of the resultant aerosol” value [1] read?
Answer: Its value is 96.8%.

Question: And the “recovered yield of aerosol” value [1]?
Answer: The value was 100%.

Question: Which “average yield of nicotine in the aerosol” value ([2]; 2 μm thick thin film, temperature range 300° C. to 400° C.) does the source give for `CN1CCCC1c1cccnc1.CN1CCCC1c1cccnc1.[Br][Zn][Br]` (stereo not shown) [(nicotine)2-ZnBr2] here?
Answer: The value was “about 60±7%”.

Question: What about the “average yield of nicotine in the aerosol” value ([2]; 6 μm thick thin film, maximum temperature 300° C.) of the same compound?
Answer: The value was “about 51±2%”.

Question: And the “average yield of nicotine in the aerosol” value ([2]; 6 μm thick thin film, maximum temperature 400° C.)?
Answer: The value was “about 73±1%”.

Question: And the “average nicotine purity of the aerosol” value ([3]; 2 μm thick thin film)?
Answer: Its value is “about 99.5%”.

Question: What about the “average nicotine purity of the aerosol” value ([3]; 6 μm thick thin film) of the same compound?
Answer: Its value is “about 99.99%”.

Question: And the “purity of nicotine aerosol from 6 μm film compared with 2 μm film” value ([3]; for a given vaporization temperature)?
Answer: The value was “greater”.

Question: And the “change of nicotine purity of the aerosol” value ([3]; thin film heated to a maximum temperature of greater than 300° C.)?
Answer: Its value is “decreased”.

Question: And the “MMAD of the nicotine aerosol” value ([4]; 2 μm thick film)?
Answer: Its value is 2.00.

Question: What about the “purity of the nicotine aerosol” value ([4]; 2 μm thick film) of the same compound?
Answer: Its value is “greater than 97%”.

Question: What about the “MMAD of the nicotine aerosol” value ([4]; 6 μm thick film) of the same compound?
Answer: Its value is 1.79.

Question: What about the “purity of the nicotine aerosol” value ([4]; 6 μm thick film) of the same compound?
Answer: Its value is “greater than 97%”.

Question: Which “purity of the resultant aerosol” value ([1]; percussively ignited heat package, greater than 800° C., air flow 20 L/min, film 1.58 μm alprazolam, 6.33 μm pramipexole, 2.53 μm ciclesonide) does the source give for `CC(C)C(=O)OCC(=O)[C@@]12O[C@H](C3CCCCC3)O[C@@H]1C[C@H]1[C@@H]3CCC4=CC(=O)C=C[C@]4(C)[C@H]3[C@@H](O)C[C@@]12C` [ciclesonide] here?
Answer: The value was 85.6%.

Question: For `CN1CCCC1c1cccnc1` (stereo not shown) [nicotine], which “time to attain nicotine blood level peak” value ([5]; cigarette smoking) is on record?
Answer: The value was no more than 10 min.

Question: What about the “nicotine blood level peak” value ([5]; produced by cigarettes) of the same compound?
Answer: Its value is 30 to 40 ng/mL.

Question: And the “maximum nicotine blood concentration” value [5, 7]?
Answer: Its value is “approximately 12 ng/mL”.

Question: What about the “time of use to attain maximum nicotine blood concentration” value [5, 7] of the same compound?
Answer: Its value is “approximately 30 minutes”.

Question: What about the vapor pressure [6] of the same compound?
Answer: Its vapor pressure is 0.0425 mmHg.
